Assay [1] concerns the target T1, Rat M4 (Rattus norvegicus, UniProt P08485).
T1 construct: expressed in transfected cells; host or cells: CHO-K1 (ATCC), stably co-expressing chimeric G protein Gqi5
T1 sequence (P08485 1-478): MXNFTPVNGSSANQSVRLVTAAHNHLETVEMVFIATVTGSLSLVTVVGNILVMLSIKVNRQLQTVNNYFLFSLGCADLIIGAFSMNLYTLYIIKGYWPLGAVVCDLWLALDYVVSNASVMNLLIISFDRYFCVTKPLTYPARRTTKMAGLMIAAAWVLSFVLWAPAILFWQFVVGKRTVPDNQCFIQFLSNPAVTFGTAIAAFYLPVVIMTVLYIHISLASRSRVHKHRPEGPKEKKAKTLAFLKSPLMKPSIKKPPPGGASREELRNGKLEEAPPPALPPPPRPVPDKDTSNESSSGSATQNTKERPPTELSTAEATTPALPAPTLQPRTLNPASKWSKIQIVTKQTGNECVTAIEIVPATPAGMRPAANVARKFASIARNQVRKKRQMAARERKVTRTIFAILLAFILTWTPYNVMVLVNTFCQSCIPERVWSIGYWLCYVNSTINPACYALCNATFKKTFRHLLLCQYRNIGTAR
The assay can be described thus: mAChR M4 cell-based functional assay (calcium flux, antagonist mode vs EC80 acetylcholine), rat M4/Gqi5/CHO-K1 cells. The conditions noted are these: for remaining activity at 30 µM: CHO-K1, % ACh maximum at 30 μM, rat M4, read-out: Rat M4 Emin (%); for IC50: decrease of response elicited by EC80 acetylcholine, rat M4/Gqi5 CHO-K1 cells. The protocol:
(§1) Human or rat M4 cDNA, along with the chimeric G protein Gqi5, were transfected into Chinese hamster ovary (CHO-K1) cells purchased from the American Type Culture Collection using Lipofectamine2000. M4/Gqi5/CHO cells were grown in Ham's F-12 medium containing 10% heat-inactivated fetal bovine serum (FBS), 20 mM HEPES, 500 μg/mL G418 sulfate, and 200 μg/mL Hygromycin B.
(§2) For high throughput measurement of agonist-evoked increases in intracellular calcium, CHO-K1 cells stably expressing muscarinic receptors were plated in growth medium lacking G418 and hygromycin at 15,000 cells/20 μL/well in Greiner 384-well black-walled, tissue culture (TC)-treated, clear-bottom plates (VWR). Cells were incubated overnight at 37° C. and 5% CO2. The next day, cells were washed using an ELX 405 (BioTek) with assay buffer; the final volume was then aspirated to 20 μL. Next, 20 μL of a 2.3 μM stock of Fluo-4/acetoxymethyl ester (Invitrogen, Carlsbad, Calif.), prepared as a 2.3 mM stock in DMSO and mixed in a 1:1 ratio with 10% (w/v) Pluronic F-127 and diluted in assay buffer, was added to the wells and the cell plates were incubated for 50 min at 37° C. and 5% CO2. Dye was removed by washing with the ELX 405 and the final volume was aspirated to 20 μL. Compound master plates were formatted in a 10 point concentration-response curve (CRC) format (1:3 dilutions) in 100% DMSO with a starting concentration of 10 or 1 mM using a BRAVO liquid handler (Agilent). Test compound CRCs were then transferred to daughter plates (240 nL) using the Echo acoustic plate reformatter (Labcyte, Sunnyvale, Calif.) and then diluted into assay buffer (40 μL) to a 2× stock using a Thermo Fisher Combi (Thermo Fisher Scientific, Waltham, Mass.).
(§3) Calcium flux was measured using the Functional Drug Screening System (FDSS) 6000 or 7000 (Hamamatsu Corporation, Tokyo, Japan) as an increase in the fluorescent static ratio. Compounds were applied to cells (20 μL, 2×) using the automated system of the FDSS at 2 seconds into the protocol and the data were collected at 1 Hz. At 143 s, 10 μL of an EC20 concentration of the muscarinic receptor agonist acetylcholine was added (5×), followed by the addition of 12 μL of an EC80 concentration of acetylcholine at the 268 s time point (5×). Agonist activity was analyzed as a concentration-dependent increase in calcium mobilization upon compound addition. Positive allosteric modulator activity was analyzed as a concentration-dependent increase in the EC20 acetylcholine response. Antagonist activity was analyzed as a concentration-dependent decrease in the EC80 acetylcholine response; for the purposes of the tables herein, an IC50 (inhibitory concentration 50) was calculated as a concentration-dependent decrease of the response elicited by an EC80 concentration of acetylcholine. Concentration-response curves were generated using a four-parameter logistical equation in XLFit curve fitting software (IDBS, Bridgewater, N.J.) for Excel (Microsoft, Redmond, Wash.) or Prism (GraphPad Software, Inc., San Diego, Calif.) or the Dotmatics software platform (Dotmatics, Bishop's Stortford, UK).
(§4) Compounds were synthesized as described above. Activity (IC50 and Emin) was determined in the mAChR M4 cell-based functional assay as described above and the data are shown in Table 2.

Assay [2] has as its target T2, Human M4 (Homo sapiens, UniProt P08173).
T2 construct: expressed in transfected cells; host or cells: CHO-K1 (ATCC), stably co-expressing chimeric G protein Gqi5
T2 sequence (P08173 1-479): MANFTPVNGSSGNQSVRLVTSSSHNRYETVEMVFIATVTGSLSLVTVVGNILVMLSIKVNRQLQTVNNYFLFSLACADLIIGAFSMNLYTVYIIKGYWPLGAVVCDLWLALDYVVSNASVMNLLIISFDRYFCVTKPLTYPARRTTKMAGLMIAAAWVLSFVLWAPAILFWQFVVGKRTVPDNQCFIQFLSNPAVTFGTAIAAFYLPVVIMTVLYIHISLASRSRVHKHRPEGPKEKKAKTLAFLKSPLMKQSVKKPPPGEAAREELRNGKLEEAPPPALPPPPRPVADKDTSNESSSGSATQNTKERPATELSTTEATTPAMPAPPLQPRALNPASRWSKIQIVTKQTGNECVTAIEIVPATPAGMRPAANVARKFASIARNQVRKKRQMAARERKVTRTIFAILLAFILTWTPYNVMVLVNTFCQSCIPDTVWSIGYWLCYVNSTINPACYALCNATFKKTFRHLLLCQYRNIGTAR
The assay can be described thus: mAChR M4 cell-based functional assay (calcium flux, antagonist mode vs EC80 acetylcholine), human M4/Gqi5/CHO-K1 cells. The conditions noted are these: for remaining activity at 30 µM: CHO-K1, % ACh maximum at 30 μM, human M4, read-out: Human M4 Emin (%); for IC50: decrease of response elicited by EC80 acetylcholine, human M4/Gqi5 CHO-K1 cells. The method, then:
as §1, §2, §3, §4

Usually IC50 stands for the concentration that gives 50% inhibition. As to `O=C(Nc1cc(F)ccc1Cl)c1ccc(N[C@H]2C[C@@H]3CN(CC4CCOCC4)C[C@@H]3C2)nn1` [compound 11, N-(2-chloro-5-fluorophenyl)-6-(((3aR,5s,6aS)-2-((tetrahydro-2H-pyran-4-yl)methyl)octahydrocyclopenta[c]pyrrol-5-yl)amino)pyridazine-3-carboxamide], in assay [1], the remaining activity at 30 µM came to 29% and the IC50 is over 10000 nM. Also, in assay [2], the remaining activity at 30 µM worked out at 4% and the concentration for half-maximal inhibition (IC50) was 2060 nM.

Turning to `Fc1ccc(Cl)c(-c2ccc(N[C@H]3C[C@@H]4CN(C5CCCCC5)C[C@@H]4C3)nn2)c1` [compound 12, (3aR,5s,6aS)-N-(6-(2-chloro-5-fluorophenyl)pyridazin-3-yl)-2-cyclohexyloctahydrocyclopenta[c]pyrrol-5-amine], in assay [1], the remaining activity at 30 µM was determined as 5% and the IC50 came out at 445 nM. In assay [2], the remaining activity at 30 µM stood at 4% and the IC50 amounted to 2.85 nM.

On to `Fc1ccc(Cl)c(-c2ccc(N[C@H]3C[C@@H]4CN(C5CCCOC5)C[C@@H]4C3)nn2)c1` (stereo partly drawn) [compound 13, (3aR,5s,6aS)-N-(6-(2-chloro-5-fluorophenyl)pyridazin-3-yl)-2-(tetrahydro-2H-pyran-3-yl)octahydrocyclopenta[c]pyrrol-5-amine], for which, in assay [1], the remaining activity at 30 µM was determined as 17% and the IC50 was determined as 1400 nM. For the same compound, in assay [2], the remaining activity at 30 µM was determined as 3% and the IC50 was 80.2 nM.

`Fc1ccc(Cl)c(-c2ccc(N[C@H]3C[C@@H]4CN(C5COC5)C[C@@H]4C3)nn2)c1` [compound 14, (3aR,5s,6aS)-N-(6-(2-chloro-5-fluorophenyl)pyridazin-3-yl)-2-(oxetan-3-yl)octahydrocyclopenta[c]pyrrol-5-amine]: the remaining activity at 30 µM in assay [1] turned out to be 51%; in assay [2] it was 21%. The results for the IC50 in assay [1] and in assay [2] were over 10000 nM and 5030 nM, respectively.

On to `Fc1ccc(Cl)c(-c2ccc(N[C@H]3C[C@@H]4CN(C5CCSCC5)C[C@@H]4C3)nn2)c1` [compound 15, (3aR,5s,6aS)-N-(6-(2-chloro-5-fluorophenyl)pyridazin-3-yl)-2-(tetrahydro-2H-thiopyran-4-yl)octahydrocyclopenta[c]pyrrol-5-amine], for which, in assay [1], the remaining activity at 30 µM is 5% and the IC50 amounted to 884 nM. In assay [2], the remaining activity at 30 µM amounted to 7% and the IC50 came out at 10.2 nM.

Take `CC1(C)CC(N2C[C@H]3C[C@H](Nc4ccc(-c5cc(F)ccc5Cl)nn4)C[C@H]3C2)CCO1` (stereo partly drawn) [compound 16, (3aR,5s,6aS)-N-(6-(2-chloro-5-fluorophenyl)pyridazin-3-yl)-2-(2,2-dimethyltetrahydro-2H-pyran-4-yl)octahydrocyclopenta[c]pyrrol-5-amine]: in assay [1], the remaining activity at 30 µM worked out at 4% and the IC50 was found to be 97.3 nM. Moreover, in assay [2], the remaining activity at 30 µM turned out to be 4% and the IC50 stood at 1.9 nM.

Regarding `CC1(C)CC(N2C[C@H]3C[C@H](Nc4ccc(-c5cc(F)ccc5Cl)nn4)C[C@H]3C2)CC(C)(C)O1` [compound 18, (3aR,5s,6aS)-N-(6-(2-chloro-5-fluorophenyl)pyridazin-3-yl)-2-(2,2,6,6-tetramethyltetrahydro-2H-pyran-4-yl)octahydrocyclopenta[c]pyrrol-5-amine], in assay [1], the remaining activity at 30 µM amounted to 4% and the IC50 is 513 nM. Further, in assay [2], the remaining activity at 30 µM came to 4% and the IC50 worked out at 15 nM.

`CC(=O)Nc1ccc(-c2ccc(N[C@H]3C[C@@H]4CN(C5CCOC(C)(C)C5)C[C@@H]4C3)nn2)cc1` (stereo partly drawn) [compound 20, N-(4-(6-(((3aR,5s,6aS)-2-(2,2-dimethyltetrahydro-2H-pyran-4-yl)octahydrocyclopenta[c]pyrrol-5-yl)amino)pyridazin-3-yl)phenyl)acetamide]: in assay [1], the remaining activity at 30 µM came to 4% and the IC50 was determined as 129 nM. Besides, in assay [2], the remaining activity at 30 µM amounted to 3% and the IC50 stood at 18.7 nM.

`CC1(C)CC(N2C[C@H]3C[C@H](Nc4ccc(-c5ccc6nccn6c5)nn4)C[C@H]3C2)CCO1` (stereo partly drawn) [compound 21, (3aR,5s,6aS)-2-(2,2-dimethyltetrahydro-2H-pyran-4-yl)-N-(6-(imidazo[1,2-a]pyridin-6-yl)pyridazin-3-yl)octahydrocyclopenta[c]pyrrol-5-amine]: in assay [1], the remaining activity at 30 µM came out at 8% and the IC50 was 808 nM. For the same compound, in assay [2], the remaining activity at 30 µM is 7% and the IC50 was 36.2 nM.

As to `Cc1nn(C)cc1-c1ccc(N[C@H]2C[C@@H]3CN(C4CCOC(C)(C)C4)C[C@@H]3C2)nn1` (stereo partly drawn) [compound 22, (3aR,5s,6aS)-N-(6-(1,3-dimethyl-1H-pyrazol-4-yl)pyridazin-3-yl)-2-(2,2-dimethyltetrahydro-2H-pyran-4-yl)octahydrocyclopenta[c]pyrrol-5-amine], in assay [1], the remaining activity at 30 µM was determined as 11% and the IC50 is 6390 nM. Moreover, in assay [2], the remaining activity at 30 µM came out at 6% and the IC50 was determined as 4.52 nM.

As to `O=S(=O)(c1ccccc1)c1ccc(N[C@H]2C[C@@H]3CN(CC4CCOCC4)C[C@@H]3C2)nn1` [compound 23, (3aR,5s,6aS)-N-(6-(phenylsulfonyl)pyridazin-3-yl)-2-((tetrahydro-2H-pyran-4-yl)methyl)octahydrocyclopenta[c]pyrrol-5-amine], in assay [1], the remaining activity at 30 µM is 11% and the IC50 came to 1520 nM. Moreover, in assay [2], the remaining activity at 30 µM came to 4% and the IC50 was found to be 65.6 nM.

For the compound `Cc1cc(CN2C[C@H]3C[C@H](Nc4ccc(S(=O)(=O)c5ccccc5)nn4)C[C@H]3C2)nn1C` [compound 24, (3aR,5s,6aS)-2-((1,5-dimethyl-1H-pyrazol-3-yl)methyl)-N-(6-(phenylsulfonyl)pyridazin-3-yl)octahydrocyclopenta[c]pyrrol-5-amine], in assay [1], the remaining activity at 30 µM turned out to be 35% and the IC50 is over 10000 nM. In assay [2], the remaining activity at 30 µM is 8% and the IC50 worked out at 906 nM.
